According to patent publication US20180021257A1, “WATER-SOLUBLE PHARMACEUTICAL COMPOSITION COMPRISING AT LEAST ONE THERAPEUTICALLY ACTIVE SUBSTANCE AND AT LEAST ONE SUBSTANCE CAPABLE OF FORMING MICELLES” (CONSEJO NACIONAL DE INVESTIGACIONES CIENTIFICAS Y TECNICAS …, priority 2015, published 2018):
Converted amounts (≈) assume the structure as drawn. “And” between values parts separate entries of the source, which are not always exact repeats. Identical values can stand only once. Like-named read-outs stand apart in the source and are kept apart here. Each block holds one compound with its values, some of them ahead of it.

What was measured:
[1] = Loading of Ptx into antibiotic micelles, quantified by HPLC; assay type: physicochemical; conditions: for Maximum load / loading capacity: Ptx or Dtx in micelles; for Ptx loaded (%): 30 minutes, Teicoplanina 100 mg/ml, Ptx added 5 mg; for Ptx in Teicoplanin micelles: Teicoplanin 200 mg/ml
Method: Samples with 400 mg of teicoplanin were dissolved in 2 ml of distilled water at pH 5.5 or in 2 ml of phosphate buffer solution of 20 mM at pH 6, with gentle stirring in order to obtain full dissolution. The solution was allowed to stand for at least 4 hours at 4° C. A 0.5 ml aliquot was incubated with 25 μl of DMSO having increasing amounts of Paclitaxel (Ptx) in order to reach the following final concentrations: 1 mg/ml, 5 mg/ml, 10 mg/ml and 20 mg/ml.
The solutions were incubated at 25° C. for at least 4 hours and then centrifuged at 15,000×g for 10 minutes to remove the potential insoluble Ptx that had not encapsulated in teicoplanin micelles. Finally, in order to remove the remaining DMSO, the samples were dialyzed with a phosphate buffer solution of 20 mM at pH 6 for 12 hours. The quantification of Ptx introduced into teicoplanin micelles was carried out by using HPLC.
Ptx is loaded into teicoplanin micelles at a concentration of 5 mg/ml, according to the description of Example 1, but for 30 minutes at 4° C., 25° C. and 37° C. After incubation, the samples were centrifuged at 15,000×g for 10 minutes and they were also dialyzed in distilled water for 12 hours at 4° C. Finally, the amount of Ptx introduced into the teicoplanin micelle in a soluble way was quantified by HPLC. […] The load in all conditions was higher than 90%.

[2] = cited from earlier work
[3] = cited from earlier work; remark: listed apart in the source
[4] = Particle size of micelles by dynamic light scattering (DLS); assay type: physicochemical; conditions: for Diameter of micelles: comparative study, dynamic light scattering
Text: Determining Particle Size of Teico, Teico-Ptx and Teico-PTX-Alb Micelles by Dynamic Light Scattering (DLS)

[5] = cited from earlier work; for Micelles stable (Daptomycin: and biologically active): at 25° C.
[6] = in vivo; cited from earlier work
[7] = Solubility in aqueous medium; assay type: physicochemical
HEP-2 = assay: In vitro cytotoxic activity in tumor cell culture (MTT test); assay type: cell-based; conditions: for Cell Death after 24 Hours of Treatment: HEP-2, MTT
Method: Tumor cells, such as HEP-2, were incubated in MEM medium having fetal bovine serum by 2% (Natocor-Villa Carlos Paz—Cordoba—Argentina) in a CO2 incubator by 5% CO2, at confluence. Different concentrations of the compositions mentioned below were added to the cell culture: […]

[8] = Critical micelle concentration (CMC); assay type: physicochemical
[9] = Dialysis experiments on Teicoplanin micelles; assay type: physicochemical; conditions: after 48 hours of dialysis
Method: In fact, in dialysis experiments, it was shown a loss of about 25% of molecules of Teicoplanin after 48 hours of dialysis, while for the Teico-Ptx complex is was shown a loss of about 5 to 8%.

[10] = Loading of Ptx into antibiotic micelles, quantified by HPLC; assay type: physicochemical; conditions: Teicoplanin 200 mg/ml; Ptx concentration 2.5 mg/ml
[11] = aqueous medium with teicoplanin micelles, aqueous with cosolvent or surfactant or cyclodextrin
[12] = aqueous medium without micelles

- Maximum load / loading capacity [1]: 5 mg/mL
- Diameter of micelles [4]: 5 nm
Compound: CCCCCCCCCC(=O)N[C@@H](Cc1c[nH]c2ccccc12)C(=O)N[C@H](CC(N)=O)C(=O)N[C@@H](CC(=O)O)C(=O)N[C@@H]1C(=O)NCC(=O)N[C@@H](CCCN)C(=O)N[C@@H](CC(=O)O)C(=O)N[C@H](C)C(=O)N[C@@H](CC(=O)O)C(=O)NCC(=O)N[C@H](CO)C(=O)N[C@@H]([C@H](C)CC(=O)O)C(=O)N[C@@H](CC(=O)c2ccccc2N)C(=O)O[C@@H]1C [Daptomycin]
- Suggested maximum dose ([2]; in vivo): 10 to 12 mg/kg/day
- CMC ([3]; pH 4, listed as Dapto micelles): 400 μg/ml and 250 μM
- Concentration at which molecule remains soluble ([3]; pH 6.5): 150000 µg/mL
- Micelles stable and biologically active ([5]; at 4° C.): 48 hours
- Micelles stable (Daptomycin: and biologically active) [5]: 12 hours
- Half life [6]: 7 to 10 h

- solubility [7, 11]: 10 mg/mL (≈ 12.4 mM)
- solubility [7, 12]: < 0.001 mg/mL
Compound: CC(=O)O[C@@]12CO[C@@H]1C[C@H](O)[C@@]1(C)C(=O)[C@H](O)C3=C(C)[C@@H](OC(=O)[C@H](O)[C@@H](NC(=O)OC(C)(C)C)c4ccccc4)C[C@@](O)([C@@H](OC(=O)c4ccccc4)[C@H]21)C3(C)C [Dtx, Docetaxel]

- solubility [7, 11]: 10 mg/mL (≈ 11.7 mM)
- solubility [7, 12]: < 0.001 mg/mL
Compound: CC(=O)O[C@H]1C(=O)[C@@]2(C)[C@H]([C@H](OC(=O)c3ccccc3)[C@]3(O)C[C@H](OC(=O)[C@H](O)[C@@H](NC(=O)c4ccccc4)c4ccccc4)C(C)=C1C3(C)C)[C@]1(OC(C)=O)CO[C@@H]1C[C@@H]2O [Ptx, Paclitaxel]
- Cell Death after 24 Hours of Treatment (HEP-2; Ptx 5 nM): 10%
- Cell Death after 24 Hours of Treatment (HEP-2; Ptx 10 nM): 25%
- Cell Death after 24 Hours of Treatment (HEP-2; Ptx 20 nM): 40%
- Cell Death after 24 Hours of Treatment (HEP-2; Ptx 50 nM): 90%
- Killing of tumor cells (HEP-2; in 24 hours up to a concentration of 50 ng/ml): complete killing

Compound: Teicoplanin
- CMC [8]: 100 µM
- Ptx loaded (%) ([1]; 4° C.): 94%
- Ptx loaded (%) ([1]; 25° C.): 96%
- Ptx loaded (%) ([1]; 37° C.): 98%
- Load capacity compared with Daptomycin ([1]; Dtx or Ptx): twice
- Maximum load / loading capacity [1]: 10 mg/mL
- Maximum load / loading capacity ([1]; listed as Teicoplanin micelles): about 10 mg/ml
- Ptx in Teicoplanin micelles ([1]; Ptx concentration 1 mg/ml): 1 mg/mL
- Ptx in Teicoplanin micelles ([1]; Ptx concentration 5 mg/ml): 5 mg/mL
- Ptx in Teicoplanin micelles ([1]; Ptx concentration 10 mg/ml): 10 mg/mL
- Ptx in Teicoplanin micelles ([1]; Ptx concentration 20 mg/ml): 2 mg/mL
- Ptx load ([1]; in all conditions (4° C., 25° C. and 37° C.)): higher than 90%
- Suggested maximum dose ([2]; to avoid unwanted side effects or cytotoxicity): 20 mg/kg/day
- Interaction with red blood cells (RBCs) (red blood cells (RBCs)): neither Teicoplanin nor Teico-Ptx complex interact with red blood cells
- Cell Death after 24 Hours of Treatment (HEP-2; Teico 5 μM control micelles without Ptx): 0%
- Effect on cells (HEP-2; Teicoplanin by itself): no effect
- Loss of molecules of Teicoplanin [9]: about 25%
- Ptx in Teicoplanin micelles [10]: 2.5 mg/mL
- Size larger than Dapto and Dapto-Ptx micelles [4]: 40%
- Particle size ([4]; DLS, Example 5): 8 nm
- Polydispersity index ([4]; DLS, Example 5): 0.017
- Diameter of micelles [4]: 8 nm
- Micelles stable ([5]; at 4° C.): 35 days
- Micelles stable (Daptomycin: and biologically active) [5]: 48 hours
- Half life [6]: 70 to 100 h
